Laboratory results as given in patent US20250275993A1, “GLYCOSYLATION INHIBITORS AS THERAPEUTICS FOR STROKE” (The Regents of the University of California, priority 2022, published 2025).

Legend:
[1] = system: complex N-glycans of BCECs; test: Monosaccharide and sialic acid composition analysis of BCECs; assay type: cell-based, bovine; conditions: fucose 8 hours, mannose 12 hours, galactose 24 hours, Neu5Ac 8 and 24 hours
Procedure: Monosaccharide composition analysis was done using HPAEC-PAD (Thermo-Dionex ICS3000) and nmole amount of each monosaccharide present in 25 μg of protein was calculated. Samples were hydrolyzed using 2 N trifluoroacetic acid (TFA) at 100° C. for 4 hrs. Followed by removal of acid using dry nitrogen flush. To ensure complete removal of acid, samples were co-evaporated twice with 100 μl of 50% isopropyl alcohol (IPA). Finally, the samples were dissolved in Milli-Q water and injected on HPAEC-PAD. Monosaccharide profile was done using Dionex CarboPac PAI column (250 mm×4 mm; with 50 mm×4 mm guard column). An isocratic solvent mixture of 19 mM sodium hydroxide with 0.95 mM sodium acetate was used at a flow rate of 1 ml per minute for 25 mins. Data were acquired using manufacture supplied standard Quad waveform for carbohydrates. All neutral and amino sugars were identified and quantified by comparing with authentic monosaccharide standard mixture consisting of L-fucose, D-galactosamine, D-glucosamine, D-galactose, D-glucose and D-mannosc. Mild acid hydrolysis was used to release sialic acid. Briefly, samples were treated with 2 M acetic acid at 80° C. for 3 hrs followed by removal of excess acid using speed vacuum. […] Known amount of standard Neu5Ac was used to quantify amount of sialic acid in samples.

ARPE-19 RPE cells = test: Human RPE proliferation assay; assay type: cell-based
Procedure: Proliferation assays with fibroblasts were done in low-glucose DMEM containing 1% FBS, with or without 10 ng/ml bFGF, or 100 ng/ml human EGF and the assay was ended at day 3. ARPE-19 cells were gently lifted with 0.025% trypsin and plated in RtEGM media (Clonetics) containing 2% FBS, L-glutamine, human bFGF and GA-1000. Once cells were attached to plates, serum-free RtEGM media was used to maintain the cultures. For proliferation assays, 1500 human RPE cells were plated into 96-well plates in low-glucose DMEM containing 1% FBS. A673, U87MG, Calu6 and AML12 cells were grown until confluent and were then harvested and re-suspended in appropriate assay media. For proliferation assays, cells were plated at the density of 1000-2000 cells/well in low-glucose DMEM containing 5% FBS or otherwise stated. Bovine pituitary cells (pituitary folliculostellate cells) were isolated as previously described. For proliferation assays with human epidermal keratinocytes, human DMVECs and human dermal fibroblast cells, 1000 cells/well were plated in low-glucose DMEM containing 1% FBS with or without various growth factors. The assay was ended at day 3 for bovine pituitary cells and at day 4 for all the other cell types. […] Four days later, tumor cell growth was measured by the MTS assay (Promega, Madison, WI), a colorimetric assay that measures metabolic activity of viable cells. […]

VEGFR2 on cell surface = test: Biotinylation of surface proteins in BCECs; assay type: cell-based, bovine; conditions: ManN-treated BCECs
Procedure: BCECs were plated in 10 cm cell culture dishes 3 days prior to the cell surface protein isolation. Cells were washed three times with Dulbecco's PBS with CaCl2 and MgCl2, followed by a 30 min incubation with EZ-Link Sulfo-NHS-SS-Biotin (Pierce, Rockford, IL, USA; 0.5 mg/ml in Dulbecco) on ice. Cells were washed twice with Dulbecco and the non-reacted biotin was blocked with 20 mM glycine for 15 mins. To prevent the reduction of the disulfide bridge in the biotin molecule during the cell lysis process, a 100 μM oxidized glutathione (Sigma-Aldrich, St. Louis, MO) was added in the last wash solution. For cell lysis 500 μL of lysis buffer (2% NP-40, 1% Triton X-100, 10% glycerol, 100 μM oxidized glutathione, EDTA free protease inhibitor tablet (Roche, Mannheim, Germany) in PBS was added to the cells. Lysed cell extracts were scraped off the plates and transferred to an Eppendorf tube followed by incubation on ice on a shaker for 30 mins. The cell extracts were incubated with 30 U of DNase (22° C. 50 mins, Roche, Mannheim, Germany) and centrifuged for 20 mins (20,800×g, at 4° C.) to pellet the insoluble material. The protein concentration of the supernatants was determined. Equal amounts of protein (−2 mg) from each extract were used for cell surface protein isolation. […]

[2] = system: VEGF, VEGFR2 and GLUT1 & 4; test: Gene expression analysis by real-time Q PCR in BCECs; assay type: cell-based, bovine; conditions: various concentrations of ManN; 4 hours (gene) or 24 hours (protein)
Procedure: RNA was prepared using the RNeasy Mini Kit (Qiagen). Fifty ng of total RNA per reaction was used for the real-time PCR (Taqman) analysis. Reactions were set up in MicroAmp Fast Optical 96-well reaction plate, seal with MicroAmp optical Adhesion film and run on ViiA7 Real time PCR system (Applied Biosystems) and the absolute quantification with standard curve was used with Sequence Detection System (SDS) software. The expression level of each gene was further quantified relative to the housekeeping gene RPL19 in the same sample. Taqman primers and probe mixes were obtained from Thermo Fisher Scientific. Bovine VEGF-A (Bt03213282), bovine RPL19 (Bt03229687) and bovine specific VEGFR2 (Bt03258877), GLUT1 (Bt03215313) and GLUT4 (Bt03215316).

## N[C@H](C=O)[C@@H](O)[C@H](O)[C@H](O)CO [ManN, 2-Amino-2-deoxy-D-mannose]
[1]
  fucose, mannose, galactose and Neu5Ac content: significant decrease
ARPE-19 RPE cells; 5 mM level of ManN
  sensitivity of human RPE cells to ManN toxicity: least sensitive ones
ARPE-19 RPE cells; alone or in combination with growth factors
  proliferation of human RPEs: no increases in proliferation
VEGFR2 on cell surface
  amount of VEGFR2 on cell surface: no changes
[2]
  transcription of VEGF, VEGFR2, GLUT1 & 4 and total VEGFR2 protein expression: neither transcription of VEGF, VEGFR2 and GLUT] & 4 nor total VEGFR2 protein expression was significantly changed
